From US20110263693A1, “CELASTROL, GEDUNIN, AND DERIVATIVES THEREOF AS HSP90 INHIBITORS” (DANA-FARBER CANCER INSTITUTE, INC., priority 2006, published 2011)

How the values were obtained:
[1] = test system: AR; test: Western blot of AR protein level; format: cell-based; conditions: for concentration at and above which AR levels are decreased / concentration giving almost complete ablation of AR levels: LNCaP cells, 24 hr
Protocol: We first asked whether celastrol and gedunin decrease the levels of AR itself. […] Celastrol decreased AR levels in LNCaP cells at 0.5 μM and above, while gedunin decreases their levels at 10 μM and above. […] These concentration-dependent effects on AR are consistent with the observed inhibitory effects on AR-mediated signaling.

[2] = test system: androgen signaling signature in LNCaP cells; test: Synergy with HSP90 inhibitors on the androgen signaling signature (isobologram); format: cell-based; conditions: 24 hr, isobologram analysis
Excerpt: If celastrol and gedunin act on HSP90 function via a distinct mechanism from HSP90 ATP-binding site inhibition (Bagatell et al., 2005), they might act synergistically with existing HSP90 inhibitors. We therefore tested the combinatorial effects of these compounds with HSP90 inhibitors on HSP90 client signaling and viability. […] Celastrol and gedunin therefore act synergistically with existing modes of HSP90 ATP-binding site inhibition to inhibit HSP90 client signaling and viability in a cellular context, consistent with their inhibition of HSP90 via a distinct mechanism.
Adherent cell growth was measured by luminescent assay of ATP level (CellTiterGlo, Promega). LNCaP cells were grown in charcoal-stripped media for 2 days prior to simultaneous treatment with 1 nM R1881 and the relevant compound. Synergy was assessed by analyzing the IC50 of one drug over a range of concentrations of the other drug and vice versa. The resulting concentration pairs were visualized by isobologram (Gessner, 1995). Anchorage independence was measured by soft agar assay (Hahn et al., 1999). Compounds were added to both agar layers. Colonies were scored after 3 weeks.

[3] = test system: BCR-ABL1; test: Western blot of HSP90 client BCR-ABL1 level; format: cell-based, human; conditions: for protein level of BCR-ABL1: 24 hr, several cell lines, concentration-dependent
Protocol: To more broadly establish the effects of celastrol and gedunin on the HSP90 pathway, we tested whether these compounds decrease the protein levels of other HSP90 clients.
Celastrol (Calbiochem) and gedunin (Gaia Chemicals) were solubilized in DMSO. LNCaP.FGC cells (ATCC) were grown in RPMI 1640 (ATCC) with 10% FBS. Ba/F3 cells stably expressing human FLT3, EGFR, and BCR-ABL1 were grown in RPMI 1640, 10% FBS, and 2 ng/ml IL-3. SKBr3 cells were grown in a 1:1 DME:F12 plus 10% FBS.

[4] = test system: HSP90; test: HSP90 conformational change assay (bis-ANS); format: binding; conditions: purified HSP90 200 nM, bis-ANS 50 μM
Protocol: The final volume in each well was 100 μL. The plate was covered with foil and mixed for 30 s on a plate shaker before incubation for 60 min. at 37° C. Relative fluorescence units were measured using a SpectraMx Gemini XS spectrofluorometer (Molecular Devices Corporation, Sunnyvale, Calif.) at an excitation wavelength for bis-ANS of 393 nm and an emission wavelength of 484 nm. The data were acquired using the SOFTmaxPRO software (Molecular Devices Corporation, Sunnyvale, Calif.).

[5] = biological target: HSP90α (Homo sapiens, UniProt P07900); test: HSP90 ATP-binding assay (ATP-polyacrylamide pulldown from lysates of treated cells); format: cell-based; set-up: endogenous in cells; host or cells: LNCaP and K562; conditions: LNCaP and K562 cells treated 24 hr
Protocol: Given their inhibition of HSP90 clients, we next asked whether celastrol and gedunin affect HSP90 activity itself. To assess the effects on HSP90 activity within a cellular context, we treated LNCaP and K562 cells with celastrol or gedunin for 24 hr and subsequently tested the cellular HSP90's ATP-binding activity. ATP-binding activity was assayed by ATP-polyacrylamide pulldown of HSP90 from cell lysates, followed by western blot-based quantification (Bali et al., 2005). This assay identifies HSP90 inhibition, both direct and indirect, that alters HSP90 ATP-binding activity in cell lines (Bali et al., 2005, Soti et al., 2002). […] The decrease in ATP binding by HSP90 cannot be accounted for by changes in HSP90 level (FIG. 7E). Celastrol and gedunin therefore inhibit HSP90 activity itself in a cellular context, either directly or indirectly.
The ATP-binding assay was similar to that in previous reports (Bali et al., 2005, Soti et al., 2002). LNCaP and K562 cells were treated with celastrol and gedunin for 24 hr and then lysed in TNESV buffer (50 mM Tris, 2 mM EDTA, […], 1 mM activated sodium orthovanadate, 25 mM NaF, 1% Triton X-100 [pH 7.5]) for 30 min at 4° C. Lysates were spun for 30 min at 12,000 rpm at 4° C. […]

[6] = test system: androgen signaling signature in LNCaP cells; test: GE-HTS androgen signaling signature assay / screen; conditions: LNCaP; for effect on the GE-HTS androgen signaling signature outside the screen: with and without 12 hours androgen pretreatment

Compound | concentration at and above which AR levels are decreased [1] [µM] | concentration giving almost complete ablation of AR levels [1] [µM] | combined effect with geldanamycin and 17-AAG on the androgen signaling signature [2] | protein level of BCR-ABL1 [3] | inhibition of HSP90 conformational changes induced by bis-ANS [4] | ATP-binding activity of HSP90α [5] | effect on the GE-HTS androgen signaling signature outside the screen [6] | inhibition of the androgen signaling signature in the GE-HTS screen (strong / weak) ([6]; ~20 μM, 24 hr) | AR protein by immunoblotting ([1]; gedunin-treated LNCaP cells) | sensitivity of BCR-ABL T315I point mutant to inhibition ([3]; Ba/F3 cells, relative to non-mutant)
CC1=C(O)C(=O)C=C2C1=CC=C1[C@@]2(C)CC[C@@]2(C)[C@@H]3C[C@](C)(C(=O)O)CC[C@]3(C)CC[C@]12C [celastrol] | ≥ 0.5 | 1 | mild synergy | lowered the protein levels | binds purified HSP90 in vitro | inhibited the ATP-binding activity | inhibit the GE-HTS androgen signaling signature in a concentration-dependent manner | strong inhibition |  | 
CC(=O)O[C@@H]1C[C@H]2C(C)(C)C(=O)C=C[C@]2(C)[C@H]2CC[C@@]3(C)[C@H](c4ccoc4)OC(=O)[C@H]4O[C@]43[C@@]21C [gedunin] | ≥ 10 | 20 | mild synergy | lowered the protein levels | the effect is not well seen | inhibited the ATP-binding activity | inhibit the GE-HTS androgen signaling signature in a concentration-dependent manner |  | nearly entirely eliminated | increased sensitivity
